Laboratory results published in patent US7868204B2, “Inhibitors of histone deacetylase” (MethylGene Inc., priority 2001, dated 2011).
Where two headings read alike, the source gives them in different places.

Tests used:
[1] = target: T1, cloned recombinant human HDAC-1 (Homo sapiens, UniProt Q13547); assay: Human HDAC-1 enzyme inhibition, Assay 1 ([3H]-acetylated histone substrate, scintillation counting); assay type: biochemical; conditions: read-out: Human HDAC-1 IC50
T1 construct: made in house; host or cells: Baculovirus insect cell expression system
T1 sequence (Q13547 whole entry): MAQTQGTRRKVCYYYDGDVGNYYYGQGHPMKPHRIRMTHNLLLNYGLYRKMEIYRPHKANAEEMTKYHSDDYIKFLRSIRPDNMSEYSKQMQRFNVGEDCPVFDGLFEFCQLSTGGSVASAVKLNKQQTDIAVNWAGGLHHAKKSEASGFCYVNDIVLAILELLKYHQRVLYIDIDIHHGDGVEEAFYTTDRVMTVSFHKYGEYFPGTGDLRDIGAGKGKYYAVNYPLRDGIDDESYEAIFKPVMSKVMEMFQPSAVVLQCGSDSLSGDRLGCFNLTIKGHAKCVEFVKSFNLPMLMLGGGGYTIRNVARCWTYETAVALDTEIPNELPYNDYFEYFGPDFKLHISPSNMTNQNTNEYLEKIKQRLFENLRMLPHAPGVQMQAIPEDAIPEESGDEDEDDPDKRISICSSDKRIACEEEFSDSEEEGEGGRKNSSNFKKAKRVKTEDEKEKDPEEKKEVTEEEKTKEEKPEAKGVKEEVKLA
How it was run: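 Activity read as [3H]-acetic acid liberated from labeled substrate, ethyl acetate-extracted and scintillation-counted. Compounds preincubated 30 min at 4° C. with baculovirus-expressed, purified human HDAC-1. Dose-response curves give IC50 as concentration producing fifty percent of maximal inhibition.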

HCT116 cells = assay: MTT assay; assay type: cell-based; conditions: Homo sapiens, HCT-116, 72 h, HCT116 cells, 72 hours
How it was run: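 Read-out: MTT (0.5 mg/ml final, 4 h) after solubilization in 50% DMF/20% SDS, pH 4.7, with OD translated into cell number via the line's growth curve. Compound treatment lasted 72 h at 37 °C in 5% CO2, starting a day after plating.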

[2] = test system: acetylated histone H-4 in T24 human bladder cancer cells; assay: Histone H4 acetylation in whole cells by immunoblots; assay type: cell-based; conditions: 16 h
How it was run: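 Acetylated histone H4 was quantified by densitometry of ECL-developed immunoblots, probed with a polyclonal antibody, of […] total histone from T24 cultures exposed 16 h to HDAC inhibitors.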

[3] = T-24, Table 5a, read-out: H4Ac (T24) EC50
[4] = T-24, Table 5F, read-out: H4 Ac (T24) EC50

IC50 ([1]; Table 5a) [nM]	IC50 (HCT116 cells; Table 5a) [nM]	EC50 [2, 3] [nM]	IC50 ([1]; Table 5F) [nM]	IC50 (HCT116 cells; Table 5F) [nM]	EC50 [2, 4] [nM]	SMILES
1000	3000	1000				Nc1ccccc1NC(=O)c1ccc(CNc2nc(NCc3cccnc3)nc(NC3Cc4ccccc4C3)n2)cc1 [Cpd 30]
			2000	200	1000	COc1ccc2[nH]c(SCc3ccc(C(=O)Nc4cscc4N)cc3)nc2c1 [Cpd 575, N-(4-Amino-thiophen-3-yl)-4-(5-methoxy-1H-benzoimidazol-2-ylsulfanyl-methyl)-benzamide]
			2000	300	1000	CC(=O)Nc1sc(Cc2ccc(C(=O)Nc3ccccc3N)cc2)cc1C#N [Cpd 359, 4-(5-Acetylamino-4-cyano-thiophen-2-ylmethyl)-N-(2-amino-phenyl)-benzamide]
			< 50	900	5000	Nc1ccccc1NC(=O)c1ccc(CNc2ccc(OC(F)(F)F)cc2)cc1 [Cpd 422, N-(2-Amino-phenyl)-4-[(4-trifluoromethoxy-phenylamino)-methyl]-benzamide]
			3000	1000	> 5000	COc1ccc(NCc2ccc(-c3ccc(C(=O)Nc4ccccc4N)cc3)cc2)cc1 [Cpd 190, N-(2-Amino-phenyl)-4-[4-{(4-methoxy-phenylamino)-methyl}-phenyl]-benzamide]
			6000	300	2000	CC(=O)Nc1ccc(NCc2ccc(C(=O)Nc3ccccc3N)cc2)cc1 [Cpd 401, 4-[(4-Acetylamino-phenylamino)methyl]-N-(2-amino-phenyl)-benzamide]
			2000	600	< 1000	Nc1ccccc1NC(=O)c1ccc(CC2Cc3ccccc3C2=O)cc1 (stereo not drawn) [compound 272, N-(2-Amino-phenyl)-4-(1-oxo-indan-2-ylmethyl)-benzamide]
			2000	700	1000	Nc1ccccc1NC(=O)c1ccc(CN2C(=O)COc3ccccc32)cc1 [Cpd 362, N-(2-Amino-phenyl)-4-(3-oxo-2,3-dihydro-benzo[1,4]oxazin-4-ylmethyl)-benzamide]
			2000	800	2000	COc1cc(NCc2ccc(C(=O)Nc3ccccc3N)cc2)c(C(C)=O)cc1OC [Cpd 441, 4-[(2-Acetyl-4,5-dimethoxy-phenylamino)-methyl]-N-(2-amino-phenyl)-benzamide]
			2000	500	1000	CC(=O)Nc1sc(Cc2ccc(C(=O)Nc3ccccc3N)cc2)cc1C(N)=O [Cpd 579, 2-Acetylamino-5-[4-(2-amino-phenyl-carbamoyl)-benzyl]-thiophene-3-carboxamide]
			3000	800	3000	COc1ccc(NCc2ccc(C(=O)Nc3cscc3N)cc2)cc1OC [424c, N-(4-Aminothiophen-3-yl)-4-[(3,4-dimethoxyphenylamino)-methyl]-benzamide]
900	1000	2000				CC1(C)C2CC[C@@](C)(C2)[C@H]1Nc1nc(N)nc(NCc2ccc(C(=O)Nc3ccccc3N)cc2)n1 [Cpd 17]
			4000	900	2000	Nc1ccccc1NC(=O)c1ccc(CC2Cc3ccccc3C2O)cc1 (stereo not drawn) [compound 275, N-(2-Amino-phenyl)-4-(1-hydroxy-indan-2-ylmethyl)-benzamide]
800	300	5000				Nc1ccccc1NC(=O)c1ccc(CNc2nc(NCc3ccccc3)nc(NC3Cc4ccccc4C3)n2)cc1 [Cpd 25]
			700	700	1000	Nc1ccccc1NC(=O)c1ccc(CNc2ccc3c(c2)OCO3)cc1 [Cpd 428, N-(2-Amino-phenyl)-4-(benzo[1,3]dioxol-5-ylaminomethyl)-benzamide]
			13000	700	3000	COc1cc(NCc2ccc(C(=O)Nc3cscc3N)cc2)cc(OC)c1OC [Cpd 574, N-(4-Amino-thiophen-3-yl)-4-[(3,4,5-trimethoxy-phenylamino)-methyl]-benzamide]
